Measured values: patent publication US12590091B2, “1H-pyrrolo[3,2-C]pyridine and 1H-pyrrolo[2,3-C]pyridine derivatives as TLR9 inhibitors for the treatment of fibrosis” (BRISTOL-MYERS SQUIBB COMPANY, priority 2020, dated 2026)

Legend:
[1] = target: T1, human TLR8 (Homo sapiens, UniProt Q9NR97); test: TLR8 inhibition reporter assay (HEK-Blue cells, SEAP reporter); format: cell-based; conditions: HEK-Blue cells overexpressing human TLR8, stimulated with R848 15.9 μM, 22 hour incubation
T1 construct: host or cells: HEK-Blue cells
T1 sequence (Q9NR97 27-1041): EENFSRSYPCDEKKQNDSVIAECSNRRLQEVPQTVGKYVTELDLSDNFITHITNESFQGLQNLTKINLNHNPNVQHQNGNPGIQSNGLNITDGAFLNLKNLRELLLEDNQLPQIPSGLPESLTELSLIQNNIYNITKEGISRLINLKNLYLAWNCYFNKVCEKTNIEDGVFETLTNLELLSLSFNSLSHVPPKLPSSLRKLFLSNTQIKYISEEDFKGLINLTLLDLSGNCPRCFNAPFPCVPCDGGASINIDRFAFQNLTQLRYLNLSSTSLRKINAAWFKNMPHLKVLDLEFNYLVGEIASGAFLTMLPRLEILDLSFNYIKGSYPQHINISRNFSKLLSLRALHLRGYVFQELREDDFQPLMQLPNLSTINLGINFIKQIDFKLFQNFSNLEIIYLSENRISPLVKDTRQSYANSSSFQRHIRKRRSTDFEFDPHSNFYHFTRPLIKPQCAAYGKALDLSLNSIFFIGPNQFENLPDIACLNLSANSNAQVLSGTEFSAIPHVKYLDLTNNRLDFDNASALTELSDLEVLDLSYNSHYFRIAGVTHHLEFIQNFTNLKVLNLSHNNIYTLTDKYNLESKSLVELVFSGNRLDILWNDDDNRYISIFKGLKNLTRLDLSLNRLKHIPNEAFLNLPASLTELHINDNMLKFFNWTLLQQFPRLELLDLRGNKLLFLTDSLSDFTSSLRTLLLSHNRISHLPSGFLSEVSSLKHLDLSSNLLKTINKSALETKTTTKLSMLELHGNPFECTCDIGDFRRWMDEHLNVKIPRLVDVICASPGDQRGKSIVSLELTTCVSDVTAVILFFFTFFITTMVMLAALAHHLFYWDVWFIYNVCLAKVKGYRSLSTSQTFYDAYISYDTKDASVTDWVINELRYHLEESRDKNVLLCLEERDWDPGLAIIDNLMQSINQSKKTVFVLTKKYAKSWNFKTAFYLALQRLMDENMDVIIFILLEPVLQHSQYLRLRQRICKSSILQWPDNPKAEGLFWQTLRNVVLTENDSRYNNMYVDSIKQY
Method: TLR7/8/9 Inhibition Reporter Assays
HEK-Blue™-cells (Invivogen) overexpressing human TLR7, TLR8 or TLR9 receptors were used for screening inhibitors of these receptors using an inducible SEAP (secreted embryonic alkaline phosphatase) reporter gene under the control of the IFN-β minimal promoter fused to five NF-κB and AP-1-binding sites. Briefly, cells are seeded into Greiner 384 well plates (15000 cells per well for TLR7, 20,000 for TLR8 and 25,000 for TLR9) and then treated with test compounds in DMSO to yield a final dose response concentration range of 0.05 nM-50 μM. After a 30 minute compound pre-treatment at room temperature, the cells are then stimulated with a TLR7 ligand (gardiquimod at a final concentration of 7.5 μM), TLR8 ligand (R848 at a final concentration of 15.9 μM) or TLR9 ligand (ODN2006 at a final concentration of 5 nM) to activate NF-κB and AP-1 which induce the production of SEAP. After a 22 hour incubation at 37° C., 5% CO2, SEAP levels are determined with the addition of HEK-Blue™ Detection reagent (Invivogen), a cell culture medium that allows for detection of SEAP, according to manufacturer's specifications. The percent inhibition is determined as the % reduction in the HEK-Blue signal present in wells treated with agonist plus DMSO alone compared to wells treated with a known inhibitor.

[2] = target: T2, human TLR7 (Homo sapiens, UniProt Q9NYK1); test: TLR7 inhibition reporter assay (HEK-Blue cells, SEAP reporter); format: cell-based; conditions: HEK-Blue cells overexpressing human TLR7, stimulated with gardiquimod 7.5 μM, 22 hour incubation
T2 construct: host or cells: HEK-Blue cells
T2 sequence (Q9NYK1 27-1049): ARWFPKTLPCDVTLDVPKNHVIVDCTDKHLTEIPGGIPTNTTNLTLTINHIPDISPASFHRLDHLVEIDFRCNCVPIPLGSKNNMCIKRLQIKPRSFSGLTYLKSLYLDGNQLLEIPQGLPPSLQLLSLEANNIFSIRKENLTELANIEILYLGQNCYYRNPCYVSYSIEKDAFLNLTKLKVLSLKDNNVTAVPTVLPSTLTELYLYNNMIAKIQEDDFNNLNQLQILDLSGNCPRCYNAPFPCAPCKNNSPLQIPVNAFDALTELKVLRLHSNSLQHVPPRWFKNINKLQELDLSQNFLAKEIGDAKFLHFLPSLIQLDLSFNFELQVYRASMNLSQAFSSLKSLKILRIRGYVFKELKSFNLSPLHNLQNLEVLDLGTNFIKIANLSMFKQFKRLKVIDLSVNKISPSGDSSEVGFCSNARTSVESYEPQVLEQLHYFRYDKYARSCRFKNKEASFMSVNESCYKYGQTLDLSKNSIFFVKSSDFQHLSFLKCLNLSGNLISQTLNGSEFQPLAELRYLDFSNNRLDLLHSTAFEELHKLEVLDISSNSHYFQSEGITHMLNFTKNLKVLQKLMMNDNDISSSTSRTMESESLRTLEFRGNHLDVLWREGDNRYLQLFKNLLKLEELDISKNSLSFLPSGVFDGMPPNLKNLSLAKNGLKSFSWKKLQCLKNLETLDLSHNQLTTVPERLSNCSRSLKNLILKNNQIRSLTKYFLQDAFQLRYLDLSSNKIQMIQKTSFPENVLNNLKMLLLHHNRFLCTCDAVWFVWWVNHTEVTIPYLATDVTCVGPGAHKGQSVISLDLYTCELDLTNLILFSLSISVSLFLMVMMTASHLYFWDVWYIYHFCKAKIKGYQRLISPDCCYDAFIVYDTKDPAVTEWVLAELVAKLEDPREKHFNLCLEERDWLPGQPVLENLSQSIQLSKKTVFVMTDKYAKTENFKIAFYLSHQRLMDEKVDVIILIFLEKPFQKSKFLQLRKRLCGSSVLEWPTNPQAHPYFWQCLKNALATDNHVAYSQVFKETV
How it was run: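 Agonists used: gardiquimod 7.5 μM (TLR7), R848 15.9 μM (TLR8), ODN2006 5 nM (TLR9), added after 30 min room-temperature compound pre-treatment (0.05 nM–50 μM) of receptor-overexpressing HEK-Blue cells. SEAP reporter (NF-κB/AP-1 driven) read after 22 h at 37 °C; inhibition scaled between agonist+DMSO and reference-inhibitor wells.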

Compound | IC50 [1] [µM] | IC50 [2] [µM]
Cc1nc(-c2ccc(N3CCN(CCCO)CC3)c(F)c2F)cc2c1cc(-c1ccc(S(C)(=O)=O)cc1)n2C [Example 55, 3-(4-(4-(1,4-dimethyl-2-(4-(methylsulfonyl)phenyl)-1H-pyrrolo[3,2-c]pyridin-6-yl)-2,3-difluorophenyl)piperazin-1-yl)propan-1-ol] | > 50 | 5.7
Cc1nc(-c2cc(F)c(N3CCN(CCCO)CC3)cc2F)cc2c1cc(-c1ccc(S(C)(=O)=O)cc1)n2C [Example 56, 3-(4-(4-(1,4-dimethyl-2-(4-(methylsulfonyl)phenyl)-1H-pyrrolo[3,2-c]pyridin-6-yl)-2,5-difluorophenyl)piperazin-1-yl)propan-1-ol] | 13.2 | 18.5
Cc1nc(-c2ccc(CN3CCN(CCCO)CC3)cc2)cc2c1cc(-c1ccc(S(C)(=O)=O)cc1)n2C [Example 58, 3-(4-(4-(1,4-dimethyl-2-(4-(methylsulfonyl)phenyl)-1H-pyrrolo[3,2-c]pyridin-6-yl)benzyl)piperazin-1-yl)propan-1-ol] | 17.8 | 8.2
Cc1nc(-c2ccc(CN3CCC(C)(O)CC3)cc2)cc2c1cc(-c1ccc(S(C)(=O)=O)cc1)n2C [Example 59, 1-(4-(1,4-dimethyl-2-(4-(methylsulfonyl)phenyl)-1H-pyrrolo[3,2-c]pyridin-6-yl)benzyl)-4-methylpiperidin-4-ol] | 17.2 | 12.9
Cc1nc(-c2ccc(CN3CCN(CCC(C)(C)O)CC3)cc2)cc2c1cc(-c1ccc(S(C)(=O)=O)cc1)n2C [Example 60, 4-(4-(4-(1,4-dimethyl-2-(4-(methylsulfonyl)phenyl)-1H-pyrrolo[3,2-c]pyridin-6-yl)benzyl)piperazin-1-yl)-2-methylbutan-2-ol] | 4.6 | 5.4
Cc1nc(-c2ccc(CN3C[C@@H]4CC[C@H]3CN4CCC(C)(C)O)cc2)cc2c1cc(-c1ccc(S(C)(=O)=O)cc1)n2C [Example 61, 4-((1S,4S)-5-(4-(1,4-dimethyl-2-(4-(methylsulfonyl)phenyl)-1H-pyrrolo[3,2-c]pyridin-6-yl)benzyl)-2,5-diazabicyclo[2.2.2]octan-2-yl)-2-methylbutan-2-ol] | 0.86 | 3.1

Next, values leading:

IC50 [1] [µM] | IC50 [2] [µM] | Compound
> 25 | 14.7 | Cc1nc(-c2ccc(N3CCN(CCCO)CC3)cc2)cc2c1cc(-c1ccc(S(=O)(=O)C3CC3)cc1)n2C [Example 47, 3-(4-(4-(2-(4-(cyclopropylsulfonyl)phenyl)-1,4-dimethyl-1H-pyrrolo[3,2-c]pyridin-6-yl)phenyl)piperazin-1-yl)propan-1-ol]
> 25 | 2.1 | COCCN1CCN(c2ccc(-c3cc4c(cc(-c5ccc(S(=O)(=O)C6CC6)cc5)n4C)c(C)n3)cc2)CC1 [Example 48, 2-(4-(cyclopropylsulfonyl)phenyl)-6-(4-(4-(2-methoxyethyl)piperazin-1-yl)phenyl)-1,4-dimethyl-1H-pyrrolo[3,2-c]pyridine]
> 50 | > 50 | CC(C)CN1CCN(c2ccc(-c3cc4c(cn3)cc(-c3ccc(S(C)(=O)=O)cc3)n4C)cc2)CC1 [Example 53, 6-(4-(4-isobutylpiperazin-1-yl)phenyl)-1-methyl-2-(4-(methylsulfonyl)phenyl)-1H-pyrrolo[3,2-c]pyridine]
> 50 | 4.6 | CC(C)N1CCN(c2ccc(-c3cc4c(cn3)cc(-c3ccc(S(C)(=O)=O)cc3)n4C)cc2)CC1 [Example 54, 6-(4-(4-isopropylpiperazin-1-yl)phenyl)-1-methyl-2-(4-(methylsulfonyl)phenyl)-1H-pyrrolo[3,2-c]pyridine]
7.5 | 6 | Cc1nc(-c2ccc(CN3CCN(CC(C)C)CC3)cc2)cc2c1cc(-c1ccc(S(C)(=O)=O)cc1)n2C [Example 57, 6-(4-((4-isobutylpiperazin-1-yl)methyl)phenyl)-1,4-dimethyl-2-(4-(methylsulfonyl)phenyl)-1H-pyrrolo[3,2-c]pyridine]
